Data from patent US12648932B2, “Ergothioneine, S-methyl-ergothioneine, and uses thereof” (FUNDACIÓ INSTITUT D'INVESTIGACIÓ BIOMÈDICA DE BELLVITGE …, priority 2019, dated 2026).
Blank lines part the entries; values can stand above or below the compound they belong to.

Key:
[1] = tested on: lithiasic phenotype in cystinuric mice; test: ROC curve of urine S-Met-L-Erg concentration to differentiate the lithiasic phenotype; set-up: species or system mouse; conditions: stone former vs non-stone former Slc7a9-/- mice
Procedure: Mice from each genotype were individually housed in metabolic cages for 4 days with the first day as an adaptation period. Mice weight, water and food intake, and feces and urine excreted were monitored daily. 24 h urine samples were collected and kept at −80° C. until further analysis with 50 μL thymol 10% in isopropanol as preservative. Blood was obtained by intracardiac puncture with EDTA coated syringes and transferred into Microvette EDTA-tubes (Sarstedt) and centrifuged at 3000 rpm for 10 min and 4° C. in a minifuge after a 10 min incubation at room temperature. Plasma was then separated into a new tube and kept on ice. Plasma absorbance at 414 nm was then determined to quantify hemolysis with a NanoDrop spectrophotometer and only those with OD<0.2 were considered for the further analysis. Plasma samples were stored at −80° C. and centrifuged erythrocytes (RBCs) were also collected and stored at −80° C.
For L-Erg and S-met-L-Erg analysis in urine, thawed urine samples where centrifuged at 1000×g 5 min and 4° C. to remove any debris. […] The samples where then filtered through eXtremeFV PVDF 0.2 μm filter vials (Thomson Instrument Company), and L-Erg and S-met quantified by UPLC-MS/MS. […]
Mass spectrometry was carried out under positive ion, electrospray ionization mode, using multiple reaction monitoring (MRM) for quantification of specific target ions. […]

cystinuria mouse model = test: 1-month L-Erg treatment in the drinking water (dose finding): water intake, urine pH, ORP, urine L-Erg and S-Met-L-Erg; assay type: in vivo; conditions: for increase of L-Erg concentration in urine: after vs before treatment
Procedure: Three different treatments were applied to mice: 1-month, 3-month to lithiasic mice (subchronic) and 6-month (chronic exposure). In all cases L-Erg was administered in the drinking water.
For the 1-month treatment, L-Erg was provided to eight 3-month old male and female mice at 15 or 60 mg/L for 4 weeks in standard cages with free access to water and food to 8 mice (4 males and 4 females).
(§1) During the last week of any treatment period, mice were individually housed in metabolic cages for 4 days with the first day as an adaptation period. Mice weight, water and food intake, and excreted urine were monitored daily. 24 h urine samples were collected and kept at −80° C. until further analysis with 50 μL thymol 10% in isopropanol as preservative. pH was determined with a pHmeter (cat. no. 5209, Crison), and the redox potential with an ORP electrode (cat.no. 5265, Crison) at room temperature on a micropH 2000 (Crison).
(§2) L-Erg and S-Met-L-Erg analysis in urine were determined as in Example 1. For the determination of transulfuration pathway metabolites concentration, frozen kidneys were grinded using a pre-cooled mortar and pestle on dry ice. Then, 100 mg of powdered kidney were homogenized in 400 μL PBS supplemented with 10 mM NEM. To induce protein precipitation, PCA at 4% was added and samples were centrifuged at 4° C. for 15 min at 10,000 rpm in a microfuge. Supernatants were transferred to a new tube and stored at −80° C. until further analysis. Intracellular content of transulfuration pathway metabolites was determined by U PLC-MS/MS (Escobar J, et al. Development of a reliable method based on ultra-performance liquid chromatography coupled to tandem mass spectrometry to measure thiol-associated oxidative stress in whole blood samples. J. Pharm. Biomed. Anal. 2016; 123: 104-112). Protein pellets were resuspended in 400 μL 1M NaOH and the supernatant used to determine total protein concentration by BCA Protein Assay Kit (ThermoScientific).
First, there were determined the best working dose for treating the mice by investigating the effects of 1-month L-Erg treatment at two different concentrations in the drinking water, 15 and 60 mg/L, on water intake, and urine pH and ORP and L-Erg concentration.

[2] = tested on: cystinuric mice (cystine stone formation); test: 6-month (chronic) L-Erg treatment of cystinuric mice since weaning, cystine stone onset by X-ray imaging; assay type: in vivo, mouse; conditions: for stone growth (rate) in the L-Erg treated group: preventive treatment
Procedure: For the chronic exposure (6-month treatment), 4-6 mice per cage were treated since weaning for 6 months. To control L-Erg dose, water intake and mice weight were monitored and L-Erg concentration in drinking water was adjusted to get 16 mg/kg·day dose every 3 days for the first month and weekly afterwards. All mice were caged in metabolic cages individually the last week of the treatment to collect urine where water intake and mice weight were monitored daily.
(§3) Isoflurane anesthetized mice were subjected to X-ray imaging for lithiasis detection and follow-up with an IVIS Lumina XR Series III (Caliper Lifescience-Vertex Techniques) following manufacturer's imaging parameters at the age indicated in the corresponding figure legends with a calibration curve of cystine stone of known weights. Stone quantification was done using Living Image Software, provided with the instrument, by manually delimiting stone area and the estimated weight was interpolated from the calibration curve.
(§4) For the growth rate analysis, a linear regression model was used when more than 2 data points where available. The slope of the regression line in the model was used as the growth rate.
as §1
On the last day, mice were anesthetized with isfluorane and blood removed through intracardiac puncture and kidneys were harvested, weighted and stored at −80° C. until further use. Cystine stones, if present, were removed, dried, weighted and stored at RT.

[3] = equivalent of 5 mg/kg·day; cited from earlier work
[4] = L-Erg-Cys in vitro binding assay; conditions: pH=7.2 and pH=11, RT, 17 h, LC/MS-MS
Procedure: The reactivity of L-Erg with itself and with Cys was assayed in vitro at two conditions pH=7.2 in 0.2M Na2HPO4 and pH=11 in boric acid buffer (ref. 33650-1L, Fluka) at RT for 17 h. The presence of L-Erg-L-Erg and L-Erg-Cys dimers, and cystine was determined by LC/MS-MS.

[5] = tested on: transulfuration pathway metabolites in kidney; test: Intracellular content of transulfuration pathway metabolites in kidneys of chronically treated mice (UPLC-MS/MS); assay type: in vivo, mouse; conditions: chronically L-Erg treated vs untreated mice
Procedure: as §2, with “For the chronic exposure (6-month treatment), 4-6 mice per cage were treated since weaning for 6 months. To control L-Erg dose, water intake and mice weight were monitored and L-Erg concentration in drinking water was adjusted to get 16 mg/kg·day dose every 3 days for the first month and weekly afterwards. All mice were caged in metabolic cages individually the last week of the treatment to collect urine where water intake and mice weight were monitored daily. On the last day, mice were anesthetized with isfluorane and blood removed through intracardiac puncture and kidneys were harvested, weighted and stored at −80° C. until further use. Cystine stones, if present, were removed, dried, weighted and stored at RT. L-Erg and” for “L-Erg and”

[6] = tested on: lithiasic mice (cystine stone growth); test: 3-month L-Erg treatment of lithiasic mice, cystine stone growth by X-ray imaging; assay type: in vivo, mouse; conditions: 3 months
Procedure: For the evaluation of L-Erg effect on lithiasic mice, 15 mice (8 males and 7 females) were treated with 60 mg/L L-Erg on the drinking water and 13 mice (4 male and 9 females were left untreated as control. Mice were 10.9-26-9 weeks-old at the beginning of the treatment period with a mean age of 15.3±1.4 and 16.9±1.01 weeks of age for control and L-Erg treated, respectively. During the 3-month treatment water intake and mice weight was monitored weekly.
as §3, §4, §1

[7] = 60 mg/L L-Erg in drinking water
[8] = end of 6-month treatment, treated vs non-treated
[9] = 60 mg/L, before vs after treatment

area under the ROC curve, urine concentration as lithiasic biomarker [1]: over 0.65
Compound: CSc1ncc(C[C@@H](C(=O)[O-])[N+](C)(C)C)[nH]1 [S-Met-L-Erg, (2-{S})-3-(2-methylsulfanyl-1-{H}-imidazol-5-yl)-2-(trimethylazaniumyl)propanoate]

increase of L-Erg concentration in urine (cystinuria mouse model; 15 mg/L L-Erg in drinking water): 3.4±0.4 fold | urine pH change (cystinuria mouse model; 15 mg/L L-Erg in drinking water, p=0.052): statistically non-significant increase | water intake normalized by surface, change at the end of the treatment (cystinuria mouse model; 15 mg/L L-Erg in drinking water, p=0.11): statistically non-significant increase | urine pH change (cystinuria mouse model; [7]): statistically significant increase | increase of L-Erg concentration in urine (cystinuria mouse model; [7]): 174.6±38.4 fold | water intake normalized by surface, change at the end of the treatment (cystinuria mouse model; 60 mg/L L-Erg in drinking water, p=0.08): statistically non-significant increase | urine redox status or potential (ORP) change (cystinuria mouse model; 15 and 60 mg/L L-Erg in drinking water): statistically non-significant decrease | lithiasis onset ([2]; 16 mg/kg·day, 6 months, independently of sex): delayed lithiasis onset | stone growth (rate) in the L-Erg treated group ([2]; 16 mg/kg·day, 6 months, vs untreated, listed as ergothioneine): lower | effect on mouse weight ([2]; 6-month chronic treatment): no effects | effect on water intake ([2]; 6-month chronic treatment): no effects | effect on urine pH [2, 8]: no differences | reduction in the number of lithiasic (stone-forming) mice ([2]; target dose 16 mg/kg·day in drinking water since weaning, 6 months, vs untreated): 50% | delay of stone formation in relation to non-treated mice ([2]; treated mice that still formed stones): 1 month | effect on cystine stone growth ([6]; 60 mg/L in drinking water, lithiasic mice, treated vs untreated, p=0.61): No effect | effect on growth of multiple stones ([6]; 60 mg/L in drinking water, p=0.41): No statistically significant effect | effect on growth of single stones ([6]; 60 mg/L in drinking water, p=0.78): No statistically significant effect | effect on surface corrected water intake [6, 9]: no differences | effect on urine pH [6, 9]: no differences | effect on urine redox status [6, 9]: no differences
Compound: C[N+](C)(C)[C@@H](Cc1c[nH]c(=S)[nH]1)C(=O)[O-] (stereo in doubt) [L-Erg, [1-carboxy-2-(2-sulfanylidene-1,3-dihydroimidazol-4-yl)ethyl]-trimethylazanium]
stone growth (rate) in the L-Erg treated group ([2]; 16 mg/kg·day, 6 months, vs untreated): almost statistically significant reduction | effect on urine redox potential [2, 8]: statistically significant more reduced urine | side effects in cystinuric mice ([2]; mouse, in vivo): does not generate any side effect | time L-Erg blood and plasma concentrations remain significatively higher after the administration end [3]: 6 weeks | formation of L-Erg-Cys and L-Erg-L-Erg dimers [4]: Neither L-Erg-Cys, nor L-Erg-L-Erg dimers were detected | Cys intracellular concentration in kidney, increase [5]: 1.6 × | Cys/CssC ratio in kidney, increase [5]: 6.1 times | GSH intracellular concentration in kidney, increase [5]: 1.4 × | GSH/GSSG ratio in kidney, increase [5]: 2.1 times | Met intracellular concentration in kidney, increase [5]: 1.7 × | S-adenosylhomocysteine (SAH) intracellular concentration in kidney, decrease [5]: 1.2 × | SAM/SAH ratio in kidney, increase [5]: 1.8 times | cystine intracellular concentration in kidney, decrease [5]: 11.1 × | gamma-Glutamylcysteine intracellular concentration in kidney, increase [5]: 1.7 ×
